Reference: US9650405B2, “Modified sophorolipids as oil solubilizing agents” (Polytechnic Institute of New York University, priority 2010, dated 2017)
Several values for one entry are separate records, joined by “and”; a condition that tells them apart may be missing. Identical values can stand only once.

Key:
[1] = Emulsion type: dilution test and oil soluble dye staining; type: physicochemical; conditions: 2%-by-weight relative to water phase, oil/water 5/5 and 7/3
Experimental: In this test the emulsion is diluted either with oil (O) or water (W). If the emulsion is O/W type and it is diluted with water, it will remain stable as water is the dispersion medium. However, if the emulsion is O/W type and it is diluted with oil, the emulsion will break as oil and water are not miscible with each other. […] Emulsions of the O/W type have separated layers after dilution with pure oil but form a homogenous phase when diluted by water. Unless otherwise specified, the emulsion type formed by MSLs were oil in water.
In FIG. 13B, the tube on the left was diluted with 1 mL of oil whereas the tube on right was diluted with water. Visual observation of the tubes in FIG. 13B supports that the emulsions formed are indeed O/W emulsions.
Oil Red O was applied as an oil soluble dye and emerald green as water soluble dye in the process of emulsion preparation. Observations of emulsions were made before and after staining under optical microscope at 400× magnification (FIG. 14). […] The formation of O/W emulsions and not W/O emulsions with this set of MSL compounds would not be obvious to one skilled in the art. We believe that O/W emulsions are formed by this set of MSLs due to that large sophorose polar head groups requires relatively more space than the lipid tails and, therefore self-assemble into spherical type structures where disaccharide groups are locating outside the droplets.

[2] = Emulsion stability based on phase separation; type: physicochemical; conditions: for emulsion layer volume-%, one month / emulsion layer volume-%, start: oil/water 5/5, 2%-by-weight; for emulsion layer volume-%, one month: one month at room temperature; for emulsion layer volume-%, start / emulsion layer, start: start of aging; for emulsion phase, one month / emulsion layer, start: oil/water 7/3, 2%-by-weight; for emulsion phase, one month: one month aging; for emulsion layer percentage: paraffin oil/water 5/5, 2%-by-weight emulsifier, after 24 hours at 25° C.
Experimental: The emulsion was obtained by homogenizing the oil and water mixture and was allowed to settle at room temperature for 24 hours. […] Then, this mixture was homogenized at 13,000 rpm for 2 minutes. Thereafter, the resulting emulsion was left unagitated at 25° C. for 24 hours. Surfactants which give a larger emulsion phase are denoted as having higher emulsion effectiveness (Process Safety and Environment protection, 2005, 83, 38-46). […] Thus, unexpectedly, that longer alkyl chains, at least up to butyl and hexyl, provided improved interfacial stability at the paraffin oil/water interface. […] Apparently, ester bonds of SL-esters are less disruptive to organization at the oil water interface than amide bonds of SL-amides. […] The acidic SL (3) gave an 8% emulsion layer, much lower than the MSL examples given herein. Similarly, the natural SL (1) mixture gave a 10% emulsion layer. This performance is also far below that of SL-butyl amide (24), hexyl amide (25), butyl ester (8) and hexyl ester (16).
After homogenized at 13,000 rpm for 2 minutes, the emulsions were kept at room temperature and separation of the respective oil, emulsion and water layers was recorded for up to 1 month.

[3] = Emulsion viscosity measurement; type: physicochemical
Experimental: Viscosity was measured at 25° C. with increasing shear rate from 1 S^−1 to 750 S^−1. The viscosity change was monitored for aging times up to 3 months. For all samples, the paraffin oil/water ratio is 7/3 and the surfactant concentrations studied were 0.5%, 1% to 2%-by-weight relative to the oil phase. FIG. 19 presents the viscosity change with shear rate for different aging times. […] The emulsion tested was prepared using 2%-by-weight SL-butyl ester relative to paraffin oil. Viscosity decreases with increased shear rate implying the emulsion follows shear shinning. Furthermore, viscosity decreased with increased storage time. […] This change is consistent with the small increase in oil phase particle size (1.7 to 2.1 μm) with aging from 1 day to 3-months (Tables 4 and 5).
Values of ηlow decreased with storage time to various extents that are dependent on the MSL compound used to stabilize the emulsion. […] The relative ability of different MSL structures to stabilize emulsions and thereby decrease the extent of decrease in viscosity as a function of aging time would not be predictable by one skilled in the art. The behavior as a function of MSL structure is related to emulsion dispersed phase droplet size. That is, the smaller the change in droplet size, the less decrease in emulsion viscosity occurs with increased aging time. Smaller changes in droplet size reflects the ability of the emulsifier to better stabilize particles. For example, the viscosity of the emulsion stabilized by SL-butyl amide decreased by 65% (from 344 Pas to 120 Pas) whereas the viscosity of the emulsion stabilized by SL-hexyl ester decreased by 20% (from 457 Pas to […]).
The viscosity was measured 24 hours after emulsion preparation. The viscosity increased with increasing surfactant concentration. Such behavior could not have been predicted by one skilled in the art without the teaching provided in this disclosure. The extent of viscosity change with surfactant concentration is related to the interfacial free energy at the droplet surface that reduces with the increase of surfactant concentration.

[4] = Solubility of MSLs in water
Description: If the material precipitates upon cooling or was to some extent insoluble, the insoluble material was separated by filtration, dried and weighed.

[5] = Emulsion droplet size distribution, Coulter LS 230 analyzer; type: physicochemical; conditions: paraffin oil-to-water 7:3 v/v, 25° C.
Experimental: Emulsified oil droplet size (average and standard deviation) was measured after suitable dilution of the emulsion phase using a Coulter LS 230 analyzer. […] Relative to natural and lactonic SL, selected MSLs show improved properties as emulsifiers on paraffin oil.
After being aged for 3-months, emulsified oil droplet size (average and standard deviation) was measured after suitable dilution of the emulsion phase using a Coulter LS 230 analyzer and the results are listed in Table 5. […] However, increasing the surfactant concentration from 1 to 2% did result in substantially smaller emulsion-phase droplet sizes. […] This is evidence that MSL's can stabilize oil phases greatly decreasing their tendency to undergo coalescence. […] It follows that the results of 3-month aging studies support the utility of selected MSLs for formation and stabilization of oil-in-water emulsions of paraffin oil phases. One skilled in the art would expect that the ability of these MSLs to stabilize paraffin oil phases teaches that they would also stabilize oil phases of similar structure.

[6] = SL-esters; from earlier publication in Colloids and surfaces, 2004, 240, 75; cited from earlier work
[7] = oil/water 7/3, 2%-by-weight relative to paraffin oil, 25° C.
[8] = oil/water 7/3, 1% MSL, shear rate 1 S^−1

| emulsion type by Oil Red O staining [1] | emulsion layer volume-%, one month [2] [%] | emulsion layer volume-%, start [2] [%] | emulsion phase, one month [2] [%] | emulsion layer, start [2] [%] | emulsion layer percentage [2] [%] | Solubility [4] [µg/mL] | Average droplet size ([5]; 0.5 weight %, 24 hours) [μm] | Average droplet size ([5]; 0.5 weight %, aged 3-months) [μm] | Average droplet size ([5]; 1 weight %, 24 hours) [μm] | Average droplet size ([5]; 1 weight %, aged 3-months) [μm] | Average droplet size ([5]; 2 weight %, 24 hours) | Average droplet size ([5]; 2 weight %, aged 3-months) | Structure (SMILES) | CMC Range [6] | MST (minimum surface tension) [6] [mN/m] | other results |
| --- | --- | --- | --- | --- | --- | --- | --- | --- | --- | --- | --- | --- | --- | --- | --- | --- |
| O/W | 50 | 65 | 90 | 95 | 55 | <3000 | 2.5 ± 0.3 | 3.5 ± 0.4 | 2.4 ± 0.3 | 3.1 ± 0.5 | 1.7 μm and 1.7 ± 0.1 μm | 2.1 μm and 2.1 ± 0.4 μm | CCCCOC(=O)CCCCCCCC=CCCCCCCC(C)OC1OC(CO)C(O)C(O)C1OC1OC(CO)C(O)C(O)C1O (stereo not drawn) [Compound 8, SL-Butyl Ester] | 7-9 10^−6M | 34.5 | emulsion viscosity at shear rate 1S^−1, after 3 months [3, 7]: 376 Pas; emulsion viscosity at shear rate 1S^−1, before aging [3, 7]: 465 Pas; viscosity decrease after 3 months ([3]; oil/water 7/3, 2%-by-weight, shear rate 1S^−1): 19.1% |
| O/W | 65 | 70 | 85 | 95 | 65 | <5000 | 2.3 ± 0.4 | 2.9 ± 0.2 | 2.1 ± 0.3 | 2.5 ± 0.1 | 1.7 ± 0.2 μm | 1.9 ± 0.1 μm | CCCCCCOC(=O)CCCCCCCC=CCCCCCCC(C)OC1OC(CO)C(O)C(O)C1OC1OC(CO)C(O)C(O)C1O (stereo not drawn) [Compound 16, SL-Hexyl Ester] | 3-4 10^−6M | 34.0 | low shear emulsion viscosity, after aging period [3, 8]: 459 Pas; low shear emulsion viscosity, before aging [3, 8]: 457 Pas; viscosity decrease over the aging period [3, 8]: 20% |
